# In the OligoGym collection:
# Oligonucleotides are written 5' to 3', each unit as a sugar letter and its base; * is a phosphorothioate linkage, no mark a phosphodiester; rarer units and linkages stand in square brackets, end groups in braces. Plain capitals give the bases only. d = 2'-deoxy (DNA); r = 2'-OH (RNA)
# Target: UBE2C
# Assay: reporter assay of Huesken 2005
# Conditions: siRNA
# Also: test concentration or dose not given here.
row,Substance,normalised inhibition (eCFP-eYFP dual reporter) [%]
1,sense rGrCrGrCrCrCrArCrArGrUrGrArArGrUrUrCrCdTdT / antisense rGrGrArArCrUrUrCrArCrUrGrUrGrGrGrCrGrCdAdT,70.9
2,sense rArArGrUrUrCrCrUrCrArCrGrCrCrCrUrGrCrUdTdT / antisense rArGrCrArGrGrGrCrGrUrGrArGrGrArArCrUrUdCdA,51
3,sense rGrCrUrGrGrArArCrArGrUrArUrArUrGrArArGdTdT / antisense rCrUrUrCrArUrArUrArCrUrGrUrUrCrCrArGrCdTdG,90.4
4,sense rUrCrCrUrGrArArGrGrArArArArGrUrGrGrUrCdTdT / antisense rGrArCrCrArCrUrUrUrUrCrCrUrUrCrArGrGrAdTdG,71.8
5,sense rCrCrCrArGrUrGrGrCrUrArCrCrCrUrUrArCrAdTdT / antisense rUrGrUrArArGrGrGrUrArGrCrCrArCrUrGrGrGdGdA,85.7
6,sense rArGrArGrUrUrCrCrCrCrArGrUrGrGrCrUrArCdTdT / antisense rGrUrArGrCrCrArCrUrGrGrGrGrArArCrUrCrUdAdG,87
7,sense rCrGrCrUrArGrArGrUrUrCrCrCrCrArGrUrGrGdTdT / antisense rCrCrArCrUrGrGrGrGrArArCrUrCrUrArGrCrGdAdG,86.9
8,sense rArCrArGrUrArUrArUrGrArArGrArCrCrUrGrAdTdT / antisense rUrCrArGrGrUrCrUrUrCrArUrArUrArCrUrGrUdTdC,88.1
9,sense rCrCrUrGrGrArCrArUrCrCrUrGrArArGrGrArAdTdT / antisense rUrUrCrCrUrUrCrArGrGrArUrGrUrCrCrArGrGdCdA,74.2
10,sense rGrArGrArArCrCrCrArArCrArUrUrGrArUrArGdTdT / antisense rCrUrArUrCrArArUrGrUrUrGrGrGrUrUrCrUrCdCdT,66.3
11,sense rUrGrArGrGrUrArUrArArGrCrUrCrUrCrGrCrUdTdT / antisense rArGrCrGrArGrArGrCrUrUrArUrArCrCrUrCrAdGdG,80.6
12,sense rArCrCrUrGrArGrGrUrArUrArArGrCrUrCrUrCdTdT / antisense rGrArGrArGrCrUrUrArUrArCrCrUrCrArGrGrUdCdT,80.9
13,sense rCrUrCrCrArUrCrCrArGrArGrCrCrUrUrCrUrAdTdT / antisense rUrArGrArArGrGrCrUrCrUrGrGrArUrGrGrArGdAdG,81.9
14,sense rUrArGrArGrUrUrCrCrCrCrArGrUrGrGrCrUrAdTdT / antisense rUrArGrCrCrArCrUrGrGrGrGrArArCrUrCrUrAdGdC,67.2
15,sense rUrArGrUrCrCrCrUrUrGrArArCrArCrArCrArUdTdT / antisense rArUrGrUrGrUrGrUrUrCrArArGrGrGrArCrUrAdTdC,76.1
16,sense rGrUrGrGrCrUrArCrCrCrUrUrArCrArArUrGrCdTdT / antisense rGrCrArUrUrGrUrArArGrGrGrUrArGrCrCrArCdTdG,87.8
17,sense rGrCrCrCrArCrArGrUrGrArArGrUrUrCrCrUrCdTdT / antisense rGrArGrGrArArCrUrUrCrArCrUrGrUrGrGrGrCdGdC,46.7
18,sense rUrGrCrCrCrUrGrUrArUrGrArUrGrUrCrArGrGdTdT / antisense rCrCrUrGrArCrArUrCrArUrArCrArGrGrGrCrAdGdA,50.8

# Target: UBE2M
# Assay: reporter assay of Huesken 2005
# Conditions: siRNA
row,Substance,normalised inhibition (eCFP-eYFP dual reporter) [%]
1,sense rArUrCrCrArGrArArGrGrArCrArUrArArArCrGdTdT / antisense rCrGrUrUrUrArUrGrUrCrCrUrUrCrUrGrGrArUdCdC,56.4
2,sense rCrArArUrGrGrUrCrUrArUrCrArCrCrCrCrArAdTdT / antisense rUrUrGrGrGrGrUrGrArUrArGrArCrCrArUrUrGdTdC,86.1
